Values of other authors, collected in patent US9107921B2, “Oral dosage forms for oxygen containing active agents and oxyl-containing polymers” (Spriaso LLC, priority 2012, dated 2015).
Where a name gives a salt, the structure may show the parent alone.

What was measured:
[1] = for plasma half-life: in vivo

**Q.** With `COc1ccc2c3c1O[C@H]1C(=O)CC[C@H]4[C@@H](C2)N(C)CC[C@]314` [Hydrocodone] as the compound, how does the plasma half-life [1] read?
**A.** 3.8 to 6 h

**Q.** With `CN(C)CCC(c1ccc(Cl)cc1)c1ccccn1` (centres unmarked) [chlorpheniramine, Chlorpheniramine] as the compound, how does the “time to peak plasma concentration” value ([1]; following oral administration) read?
**A.** 2 to 3 h

**Q.** What about the “time to 50% in vitro drug release” value (single-layer matrix tablet, HPMC polymer (Methocel K4M) to active ratio of about 1:1) of the same compound?
**A.** about 3.5 hours

**Q.** With `COc1ccc2c3c1O[C@H]1[C@@H](O)C=C[C@H]4[C@@H](C2)N(C)CC[C@@]341` [codeine, 3-methylmorphine] as the compound, how does the plasma half-life [1] read?
**A.** 2.5 to 3 h

**Q.** Which “time to 50% drug release in vitro” value (matrix tablet, HPMC (Methocel K4M) to active agent ratio 1:0.3 by weight) does the source give for `CC(C)NCC(O)COc1cccc2ccccc12` (centres unmarked) [propranolol HCl] here?
**A.** about 4 hours
